Source: US9079913B2, “Spiro-oxindole MDM2 antagonists” (The Regents of the University of Michigan, priority 2009, dated 2015)
Read-outs that look alike come from different tables or passages of the source.

How the values were obtained:
[1] = target: recombinant human His-tagged MDM2 protein (residues 1-118) (Homo sapiens (Human), UniProt Q00987); test: Fluorescence-polarization MDM2 binding assay;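 further: fluorescence polarization read after three hours of incubation in potassium phosphate buffer containing bovine gamma globulin and Triton X-100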
Sequence of recombinant human His-tagged MDM2 protein (residues 1-118) (Q00987 1-118): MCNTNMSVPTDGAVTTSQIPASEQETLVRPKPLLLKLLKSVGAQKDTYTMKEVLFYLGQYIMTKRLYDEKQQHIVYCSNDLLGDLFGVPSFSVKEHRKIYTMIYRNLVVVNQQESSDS

[2] = system: cancer cell lines with wild-type p53 / mutated or deleted p53 (ATCC); test: Cell growth assay (WST-8), other cancer cell lines; type: cell-based; conditions: Homo sapiens
[3] = system: Isogenic HCT-116 colon cancer cell lines; test: cells; type: cell-based; conditions: Homo sapiens;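 further: cells grown in 96-well plates in McCoy's 5A medium with 10% FBS, exposed to compound for 4 days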
Method: Cells were seeded in 96-well flat bottom cell culture plates at a density of 2−3×10^3 cells/well with compounds and incubated for 4 days.

[4] = Table 19A, FP binding assay, read-out: MDM2 IC50
[5] = PC-3, Table 19A, PC-3 cells, deleted p53, cell growth, read-out: PC-3 (deleted p53) IC50
[6] = LNCaP, Table 19A, LNCAP cells, p53 wild-type, cell growth, read-out: LNCAP (p53 wild-type) IC50
[7] = HCT-116, read-out: HCT-116 (p53-/-) IC50, Table 19A, HCT-116 p53-/-, cell growth
[8] = HCT-116, read-out: HCT-116 (p53 wild-type) IC50, Table 19A, HCT-116 p53 wild-type, cell growth
[9] = Table 19C, read-out: Bidning affinities to MDM2 as determined using FP assay IC50
[10] = LNCaP, Table 19C, LNCaP cells, read-out: Cell growth inhibition using WST assay, LNCaP IC50
[11] = PC-3, Table 19C, PC3 cells, read-out: Cell growth inhibition using WST assay, PC3 IC50
[12] = HCT-116, read-out: Cell growth inhibition using WST assay, HCT116 p53KO IC50, Table 19C, HCT116 p53KO
[13] = HCT-116, read-out: Cell growth inhibition using WST assay, HCT116 p53WT IC50, Table 19C, HCT116 p53WT

Q: Which IC50 [1, 4] does the source give for `CC(C)(C)C[C@@H]1N[C@@H](C(=O)N[C@H]2C[C@@](C)(O)C2)[C@H](c2cccc(Cl)c2F)[C@]12C(=O)Nc1c2ccc(Cl)c1F` here?
A: < 0.1 µM

Q: What does the source list for `CC(C)(C)C[C@H]1N[C@@H](C(=O)N[C@H]2C[C@@](C)(O)C2)[C@H](c2cccc(Cl)c2)[C@@]12C(=O)Nc1cc(F)c(F)cc12` [C035]?
A: IC50 [1, 4]: < 3 µM; IC50 [2, 5]: > 10 µM

Q: Which results are given for `CC(C)(C)C[C@H]1N[C@@H](C(=O)NCC[C@H](O)C=O)[C@H](c2cccc(Cl)c2)[C@@]12C(=O)Nc1cc(Cl)c(F)cc12` [MI-219-M1 (a)]?
A: IC50 [1, 4]: < 1 µM; IC50 [2, 6]: < 3 µM; IC50 [2, 5]: > 10 µM; IC50 [3, 7]: > 10 µM; IC50 [3, 8]: < 3 µM

Q: Which results are given for `CC(C)(C)C[C@H]1N[C@@H](C(=O)NCCC(=O)CO)[C@H](c2cccc(Cl)c2)[C@@]12C(=O)Nc1cc(Cl)c(F)cc12` [MI-219-M1 (b)]?
A: IC50 [1, 4]: < 1 µM; IC50 [2, 6]: < 3 µM; IC50 [2, 5]: > 10 µM; IC50 [3, 7]: > 10 µM; IC50 [3, 8]: < 3 µM

Q: What does the source list for `CC(C)(C)C[C@H]1N[C@@H](C(=O)NCCCO)[C@H](c2cccc(Cl)c2)[C@@]12C(=O)Nc1cc(Cl)c(F)cc12` [MI-219-M8]?
A: IC50 ([1]; Table 19D, read-out: MDM2 Binding Affinities IC50): < 1 µM; IC50 ([2]; LNCaP, Table 19D, LNCaP cells, read-out: LNCaP IC50): 1.1 ± 0.5 µM; IC50 ([2]; PC-3, Table 19D, PC3 cells, read-out: PC3 IC50): 9.2 ± 1.6 µM; IC50 ([3]; HCT-116, read-out: HCT116p53KO IC50, Table 19D, HCT116 p53KO): 18 ± 4.1 µM; IC50 ([3]; HCT-116, read-out: HCT116p53WT IC50, Table 19D, HCT116 p53WT): 1.4 ± 0.9 µM

Q: Which results are given for `CC(C)(C)C[C@H]1N[C@@H](C(=O)NCC[C@H](O)CO)[C@H](Cc2ccccc2)[C@@]12C(=O)Nc1cc(Cl)c(F)cc12` [MI-319-23]?
A: IC50 [1, 9]: > 10 µM; IC50 [2, 10]: > 10 µM; IC50 [2, 11]: > 10 µM; IC50 [3, 12]: > 10 µM; IC50 [3, 13]: > 10 µM

Q: `CC(C)(C)C[C@H]1N[C@@H](C(=O)NC[C@H](O)[C@H](O)CO)[C@H](Cc2cccc(Cl)c2)[C@@]12C(=O)Nc1cc(Cl)c(F)cc12` [MI-319-24] was tested. Which IC50 [1, 9] did it give?
A: < 1 µM

Q: And the IC50 [2, 10]?
A: < 5 µM

Q: What about the IC50 [2, 11] of the same compound?
A: > 10 µM

Q: What about the IC50 [3, 12] of the same compound?
A: > 10 µM

Q: And the IC50 [3, 13]?
A: < 5 µM
